ChEMBL document CHEMBL3991601, “The target landscape of clinical kinase drugs” (Science, 2017)
Activity calls are given as the source filed them. Cut-off read from the data, not from the text of the source, for most assays here: actives have a measured Kd and inactives only a lower limit.

What was measured:
[1] = target: T1, STE20-related kinase adapter protein alpha (Homo sapiens, UniProt Q7RTN6)
T1 sequence (Q7RTN6 whole entry): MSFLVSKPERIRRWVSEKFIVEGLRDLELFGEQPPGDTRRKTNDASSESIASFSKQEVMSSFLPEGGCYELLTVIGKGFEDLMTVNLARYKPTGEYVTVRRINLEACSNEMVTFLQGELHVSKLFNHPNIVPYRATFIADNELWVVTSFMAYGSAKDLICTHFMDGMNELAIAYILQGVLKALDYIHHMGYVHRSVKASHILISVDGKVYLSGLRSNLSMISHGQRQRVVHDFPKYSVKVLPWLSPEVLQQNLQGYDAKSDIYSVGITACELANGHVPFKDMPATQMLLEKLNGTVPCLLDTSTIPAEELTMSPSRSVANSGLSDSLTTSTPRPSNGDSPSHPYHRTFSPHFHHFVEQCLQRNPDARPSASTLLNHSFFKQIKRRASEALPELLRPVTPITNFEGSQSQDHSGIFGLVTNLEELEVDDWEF

Aurora kinase B = Aurora kinase B (Homo sapiens, UniProt Q96GD4)
Chain of Aurora kinase B (Q96GD4 whole entry): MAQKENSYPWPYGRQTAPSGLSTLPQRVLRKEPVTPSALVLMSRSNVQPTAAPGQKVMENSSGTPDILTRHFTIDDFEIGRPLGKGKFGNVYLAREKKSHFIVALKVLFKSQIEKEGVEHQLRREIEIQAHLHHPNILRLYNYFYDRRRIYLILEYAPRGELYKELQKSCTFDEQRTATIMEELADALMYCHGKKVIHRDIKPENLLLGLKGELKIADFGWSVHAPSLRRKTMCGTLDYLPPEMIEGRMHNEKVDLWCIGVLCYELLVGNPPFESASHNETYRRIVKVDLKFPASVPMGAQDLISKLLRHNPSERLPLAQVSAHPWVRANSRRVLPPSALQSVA

[2] = target: Elongation factor Tu, mitochondrial (Homo sapiens, UniProt P49411)
[3] = target: T2, Receptor-type tyrosine-protein kinase FLT3 (Homo sapiens, UniProt P36888)
T2 sequence (P36888 whole entry): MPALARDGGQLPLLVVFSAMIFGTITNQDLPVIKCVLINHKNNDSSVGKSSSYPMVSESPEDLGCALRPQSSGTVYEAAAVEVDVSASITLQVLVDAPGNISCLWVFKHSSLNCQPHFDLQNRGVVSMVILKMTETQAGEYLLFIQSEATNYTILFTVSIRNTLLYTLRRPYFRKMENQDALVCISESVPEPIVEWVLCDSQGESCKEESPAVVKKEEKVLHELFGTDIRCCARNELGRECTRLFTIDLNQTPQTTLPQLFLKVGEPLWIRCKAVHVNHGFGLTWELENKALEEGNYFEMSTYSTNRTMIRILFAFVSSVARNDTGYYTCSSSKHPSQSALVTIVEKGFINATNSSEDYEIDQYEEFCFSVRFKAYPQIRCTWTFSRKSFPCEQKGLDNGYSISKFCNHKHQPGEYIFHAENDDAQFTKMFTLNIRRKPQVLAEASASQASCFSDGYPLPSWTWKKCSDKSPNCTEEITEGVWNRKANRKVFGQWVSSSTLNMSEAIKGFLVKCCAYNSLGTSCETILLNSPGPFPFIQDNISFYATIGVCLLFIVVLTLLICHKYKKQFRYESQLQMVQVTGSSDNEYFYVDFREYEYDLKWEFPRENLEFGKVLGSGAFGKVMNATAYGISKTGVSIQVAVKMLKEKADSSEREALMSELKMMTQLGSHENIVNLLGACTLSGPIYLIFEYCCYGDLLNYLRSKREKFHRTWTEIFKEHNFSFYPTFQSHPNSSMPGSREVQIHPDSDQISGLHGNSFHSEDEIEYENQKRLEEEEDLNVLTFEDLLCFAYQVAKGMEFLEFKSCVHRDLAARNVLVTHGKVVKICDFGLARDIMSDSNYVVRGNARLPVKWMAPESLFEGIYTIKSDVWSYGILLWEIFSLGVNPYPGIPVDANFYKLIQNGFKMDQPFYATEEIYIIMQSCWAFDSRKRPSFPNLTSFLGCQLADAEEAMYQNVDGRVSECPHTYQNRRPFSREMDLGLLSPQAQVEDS

[4] = target: Protein kinase C delta type (Homo sapiens, UniProt Q05655)
Chain of Protein kinase C delta type (Q05655 whole entry): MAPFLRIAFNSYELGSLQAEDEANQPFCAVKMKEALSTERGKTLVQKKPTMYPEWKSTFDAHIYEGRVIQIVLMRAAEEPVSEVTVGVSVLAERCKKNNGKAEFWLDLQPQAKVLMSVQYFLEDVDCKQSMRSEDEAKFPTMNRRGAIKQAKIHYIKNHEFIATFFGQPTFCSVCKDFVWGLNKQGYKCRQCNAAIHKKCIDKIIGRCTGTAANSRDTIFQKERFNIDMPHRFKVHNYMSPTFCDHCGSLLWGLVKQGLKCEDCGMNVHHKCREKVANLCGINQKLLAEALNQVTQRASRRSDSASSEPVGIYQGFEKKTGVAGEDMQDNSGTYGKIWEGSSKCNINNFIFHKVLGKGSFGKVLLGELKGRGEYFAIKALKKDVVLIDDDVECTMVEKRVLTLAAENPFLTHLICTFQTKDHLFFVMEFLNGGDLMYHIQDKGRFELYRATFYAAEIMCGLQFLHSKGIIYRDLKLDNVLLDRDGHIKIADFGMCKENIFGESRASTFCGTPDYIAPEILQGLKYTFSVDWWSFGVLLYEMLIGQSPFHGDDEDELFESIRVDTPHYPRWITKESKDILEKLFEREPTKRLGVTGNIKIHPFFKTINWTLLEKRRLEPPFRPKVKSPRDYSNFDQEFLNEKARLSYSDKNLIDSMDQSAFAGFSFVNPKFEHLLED

[5] = target: Dual specificity protein kinase CLK1 (Homo sapiens, UniProt P49759)
Chain of Dual specificity protein kinase CLK1 (P49759 whole entry): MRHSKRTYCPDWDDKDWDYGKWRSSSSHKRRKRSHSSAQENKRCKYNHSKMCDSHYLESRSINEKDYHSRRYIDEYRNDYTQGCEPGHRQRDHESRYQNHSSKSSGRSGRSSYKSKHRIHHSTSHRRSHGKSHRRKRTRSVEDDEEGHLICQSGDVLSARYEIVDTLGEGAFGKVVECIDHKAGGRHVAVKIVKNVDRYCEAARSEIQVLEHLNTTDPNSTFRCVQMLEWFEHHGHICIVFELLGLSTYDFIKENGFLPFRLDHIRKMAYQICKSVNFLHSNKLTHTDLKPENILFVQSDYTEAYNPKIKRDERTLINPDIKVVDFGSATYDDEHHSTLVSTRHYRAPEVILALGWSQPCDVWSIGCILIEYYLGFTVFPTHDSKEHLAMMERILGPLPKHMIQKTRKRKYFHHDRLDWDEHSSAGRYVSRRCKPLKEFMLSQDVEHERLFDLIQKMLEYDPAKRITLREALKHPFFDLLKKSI

[6] = target: T3, Peroxisomal acyl-coenzyme A oxidase 1 (Homo sapiens, UniProt Q15067)
T3 sequence (Q15067 whole entry): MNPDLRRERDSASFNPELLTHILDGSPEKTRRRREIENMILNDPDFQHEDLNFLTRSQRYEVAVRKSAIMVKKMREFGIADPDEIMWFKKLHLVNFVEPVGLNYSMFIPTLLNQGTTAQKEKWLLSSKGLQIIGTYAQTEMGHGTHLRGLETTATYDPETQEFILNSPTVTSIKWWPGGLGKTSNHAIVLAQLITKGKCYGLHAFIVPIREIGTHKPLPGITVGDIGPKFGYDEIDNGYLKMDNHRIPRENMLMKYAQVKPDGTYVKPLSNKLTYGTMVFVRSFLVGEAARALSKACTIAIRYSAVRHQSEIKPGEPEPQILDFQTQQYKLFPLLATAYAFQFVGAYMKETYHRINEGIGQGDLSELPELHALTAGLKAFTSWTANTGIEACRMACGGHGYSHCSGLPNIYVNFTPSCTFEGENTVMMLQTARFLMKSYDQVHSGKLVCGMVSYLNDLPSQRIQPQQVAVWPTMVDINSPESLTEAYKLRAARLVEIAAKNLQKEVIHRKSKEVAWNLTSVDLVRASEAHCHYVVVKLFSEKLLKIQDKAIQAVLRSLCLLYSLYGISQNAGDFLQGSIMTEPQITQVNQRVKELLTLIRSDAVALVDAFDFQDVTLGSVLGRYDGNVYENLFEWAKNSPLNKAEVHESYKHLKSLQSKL

Heme oxygenase 2 = target: T4, Heme oxygenase 2 (Homo sapiens, UniProt P30519)
T4 sequence (P30519 whole entry): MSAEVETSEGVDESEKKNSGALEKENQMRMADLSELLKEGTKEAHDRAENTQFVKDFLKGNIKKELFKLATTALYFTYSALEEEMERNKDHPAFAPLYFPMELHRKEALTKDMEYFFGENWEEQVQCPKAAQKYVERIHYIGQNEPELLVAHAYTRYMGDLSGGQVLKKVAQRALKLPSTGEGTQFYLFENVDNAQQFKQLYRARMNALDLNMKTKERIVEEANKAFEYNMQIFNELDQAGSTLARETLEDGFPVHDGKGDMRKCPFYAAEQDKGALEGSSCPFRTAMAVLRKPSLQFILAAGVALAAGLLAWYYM

[7] = target: cAMP-dependent protein kinase catalytic subunit alpha (Homo sapiens, UniProt P17612)
[8] = target: Cyclin-dependent kinase 6 (Homo sapiens, UniProt Q00534)
Chain of Cyclin-dependent kinase 6 (Q00534 whole entry): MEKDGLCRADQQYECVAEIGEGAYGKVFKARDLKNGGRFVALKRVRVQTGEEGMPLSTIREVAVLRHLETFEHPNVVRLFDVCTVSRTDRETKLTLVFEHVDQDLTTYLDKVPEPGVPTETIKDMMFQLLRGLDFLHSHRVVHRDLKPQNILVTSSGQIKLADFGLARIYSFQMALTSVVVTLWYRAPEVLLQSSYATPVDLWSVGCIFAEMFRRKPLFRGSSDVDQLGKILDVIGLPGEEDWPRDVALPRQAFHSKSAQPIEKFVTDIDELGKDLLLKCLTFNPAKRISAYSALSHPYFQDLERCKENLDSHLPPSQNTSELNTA

[9] = target: Mitogen-activated protein kinase 11 (Homo sapiens, UniProt Q15759)
Chain of Mitogen-activated protein kinase 11 (Q15759 whole entry): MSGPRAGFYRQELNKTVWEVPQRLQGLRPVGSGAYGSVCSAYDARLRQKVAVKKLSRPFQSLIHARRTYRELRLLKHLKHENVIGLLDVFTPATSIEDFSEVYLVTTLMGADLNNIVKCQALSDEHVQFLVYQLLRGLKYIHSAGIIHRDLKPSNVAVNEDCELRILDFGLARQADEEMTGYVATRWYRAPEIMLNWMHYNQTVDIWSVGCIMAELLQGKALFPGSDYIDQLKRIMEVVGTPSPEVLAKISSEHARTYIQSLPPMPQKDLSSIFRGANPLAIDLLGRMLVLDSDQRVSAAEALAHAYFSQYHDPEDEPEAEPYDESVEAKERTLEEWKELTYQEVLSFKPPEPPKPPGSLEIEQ

[10] = target: Dual specificity mitogen-activated protein kinase kinase 2 (Homo sapiens, UniProt P36507)
Chain of Dual specificity mitogen-activated protein kinase kinase 2 (P36507 whole entry): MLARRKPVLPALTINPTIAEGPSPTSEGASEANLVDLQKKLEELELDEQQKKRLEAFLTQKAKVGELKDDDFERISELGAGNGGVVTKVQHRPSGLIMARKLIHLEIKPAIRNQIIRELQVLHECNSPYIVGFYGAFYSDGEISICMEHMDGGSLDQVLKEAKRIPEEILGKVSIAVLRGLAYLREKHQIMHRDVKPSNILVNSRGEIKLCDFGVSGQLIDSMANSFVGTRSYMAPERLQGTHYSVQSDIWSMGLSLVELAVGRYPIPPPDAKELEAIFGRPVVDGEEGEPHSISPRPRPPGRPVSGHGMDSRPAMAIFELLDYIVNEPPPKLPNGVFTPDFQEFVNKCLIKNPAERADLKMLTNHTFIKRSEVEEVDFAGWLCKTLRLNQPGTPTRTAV
Note: in the data inactive means no Kd found up to 30 µM.

SMILES	Kd [1]	Kd (Aurora kinase B)	Kd [2]	Kd [3]	Kd [4]	Kd [5]	Kd [6]	Kd (Heme oxygenase 2)	Kd [7]	Kd [8]	Kd [9]	Kd [10]
CN1CC[C@@H](c2c(O)cc(O)c3c(=O)cc(-c4ccccc4Cl)oc23)[C@@H]1CO	> 30 µM (inactive)	> 30 µM (inactive)	> 30 µM (inactive)	> 30 µM (inactive)	2.39 µM (active)	> 30 µM (inactive)	> 30 µM (inactive)	> 30 µM (inactive)	> 30 µM (inactive)	> 30 µM (inactive)	> 30 µM (inactive)	> 30 µM (inactive)
CCN1CCN(Cc2ccc(-c3cc4c(N[C@H](C)c5ccccc5)ncnc4[nH]3)cc2)CC1 [AEE-788]	> 30 µM (inactive)	> 30 µM (inactive)	> 30 µM (inactive)	> 30 µM (inactive)	> 30 µM (inactive)	> 30 µM (inactive)	> 30 µM (inactive)	> 30 µM (inactive)	> 30 µM (inactive)	> 30 µM (inactive)	> 30 µM (inactive)	> 30 µM (inactive)
COc1cc(N2CCC(N3CCN(C)CC3)CC2)ccc1Nc1ncnc(Nc2ccccc2S(=O)(=O)C(C)C)n1 [ASP-3026]	> 30 µM (inactive)	0.1 µM (active)	> 30 µM (inactive)	0.627 µM (active)	> 30 µM (inactive)	> 30 µM (inactive)	> 30 µM (inactive)	> 30 µM (inactive)	> 30 µM (inactive)	> 30 µM (inactive)	> 30 µM (inactive)	> 30 µM (inactive)
Cc1ccc(NC(=O)c2ccc(CN3CC[C@H](N(C)C)C3)c(C(F)(F)F)c2)cc1Nc1nccc(-c2cncnc2)n1 [BAFETINIB]	> 30 µM (inactive)	> 30 µM (inactive)	> 30 µM (inactive)	> 30 µM (inactive)	> 30 µM (inactive)	> 30 µM (inactive)	> 30 µM (inactive)	> 30 µM (inactive)	> 30 µM (inactive)	> 30 µM (inactive)	1.72 µM	> 30 µM (inactive)
CCS(=O)(=O)N1CC(CC#N)(n2cc(-c3ncnc4[nH]ccc34)cn2)C1 [BARICITINIB]	> 30 µM (inactive)	> 30 µM (inactive)	> 30 µM (inactive)	> 30 µM (inactive)	1.07 µM (active)	0.778 µM	> 30 µM (inactive)	> 30 µM (inactive)	3.6 µM (active)	> 30 µM (inactive)	> 30 µM (inactive)	> 30 µM (inactive)
Cc1cc2c(F)c(Oc3ncnn4cc(OC[C@@H](C)OC(=O)[C@H](C)N)c(C)c34)ccc2[nH]1 [BRIVANIB ALANINATE]	> 30 µM (inactive)	> 30 µM (inactive)	> 30 µM (inactive)	> 30 µM (inactive)	> 30 µM (inactive)	> 30 µM (inactive)	> 30 µM (inactive)	> 30 µM (inactive)	> 30 µM (inactive)	> 30 µM (inactive)	> 30 µM (inactive)	> 30 µM (inactive)
CNC(=O)c1ccc(-c2cnc3ncc(Cc4ccc5ncccc5c4)n3n2)cc1F [CAPMATINIB]	> 30 µM (inactive)	> 30 µM (inactive)	> 30 µM (inactive)	> 30 µM (inactive)	> 30 µM (inactive)	> 30 µM (inactive)	> 30 µM (inactive)	> 30 µM (inactive)	> 30 µM (inactive)	> 30 µM (inactive)	> 30 µM (inactive)	> 30 µM (inactive)
O=C(c1ccc(F)c(F)c1Nc1ccc(I)cc1F)N1CC(O)([C@@H]2CCCCN2)C1 [COBIMETINIB]	> 30 µM (inactive)	> 30 µM (inactive)	> 30 µM (inactive)	> 30 µM (inactive)	> 30 µM (inactive)	> 30 µM (inactive)	> 30 µM (inactive)	> 30 µM (inactive)	> 30 µM (inactive)	> 30 µM (inactive)	> 30 µM (inactive)	0.022 µM (active)

Next, values leading:

Kd [1]	Kd (Aurora kinase B)	Kd [2]	Kd [3]	Kd [4]	Kd [5]	Kd [6]	Kd (Heme oxygenase 2)	Kd [7]	Kd [8]	Kd [9]	Kd [10]	SMILES
> 30 µM (inactive)	1.67 µM	> 30 µM (inactive)	> 30 µM (inactive)	> 30 µM (inactive)	> 30 µM (inactive)	> 30 µM (inactive)	> 30 µM (inactive)	> 30 µM (inactive)	> 30 µM (inactive)	> 30 µM (inactive)	> 30 µM (inactive)	COc1cc(CCc2cc(NC(=O)c3ccc(N4C[C@@H](C)N[C@@H](C)C4)cc3)n[nH]2)cc(OC)c1 [AZD-4547]
> 30 µM (inactive)	> 30 µM (inactive)	> 30 µM (inactive)	> 30 µM (inactive)	> 30 µM (inactive)	> 30 µM (inactive)	> 30 µM (inactive)	> 30 µM (inactive)	> 30 µM (inactive)	> 30 µM (inactive)	> 30 µM (inactive)	> 30 µM (inactive)	Cc1cc([C@@H](C)Nc2ccccc2C(=O)O)c2nc(N3CCOCC3)cc(=O)n2c1 [AZD-6482]
> 30 µM (inactive)	> 30 µM (inactive)	> 30 µM (inactive)	> 30 µM (inactive)	> 30 µM (inactive)	> 30 µM (inactive)	> 30 µM (inactive)	> 30 µM (inactive)	> 30 µM (inactive)	> 30 µM (inactive)	> 30 µM (inactive)	> 30 µM (inactive)	COc1ccc(-c2ccc3c(N4CCOC[C@@H]4C)nc(N4CCOC[C@@H]4C)nc3n2)cc1CO [AZD-8055]
> 30 µM (inactive)	> 30 µM (inactive)	> 30 µM (inactive)	> 30 µM (inactive)	> 30 µM (inactive)	> 30 µM (inactive)	> 30 µM (inactive)	> 30 µM (inactive)	> 30 µM (inactive)	> 30 µM (inactive)	> 30 µM (inactive)	> 30 µM (inactive)	C[C@@H](Nc1cc(F)cc(F)c1)c1cc(C(=O)N(C)C)cc2c(=O)cc(N3CCOCC3)oc12 [AZD-8186]
